Source: patent publication US10538486B2, “Hydroxamic acid type contrast agent containing radioisotope fluoride, preparation method and application thereof” (Institute of Nuclear Energy Research, Atomic Energy …, priority 2017, dated 2020)

Assays:
Assay type in all cases: biochemical
Details in all cases: 4 concentrations in DMSO, 30 min at room temperature, fluorescence 355/460 nm, FIG. 5
HDAC8 = target: T1, HDAC8 (Homo sapiens, UniProt Q9BY41); experiment: HDAC Fluorometric Assay Kit enzyme activity assay, HDAC8
T1 construct: purchased Enzolifesciences
T1 sequence (Q9BY41 1-377): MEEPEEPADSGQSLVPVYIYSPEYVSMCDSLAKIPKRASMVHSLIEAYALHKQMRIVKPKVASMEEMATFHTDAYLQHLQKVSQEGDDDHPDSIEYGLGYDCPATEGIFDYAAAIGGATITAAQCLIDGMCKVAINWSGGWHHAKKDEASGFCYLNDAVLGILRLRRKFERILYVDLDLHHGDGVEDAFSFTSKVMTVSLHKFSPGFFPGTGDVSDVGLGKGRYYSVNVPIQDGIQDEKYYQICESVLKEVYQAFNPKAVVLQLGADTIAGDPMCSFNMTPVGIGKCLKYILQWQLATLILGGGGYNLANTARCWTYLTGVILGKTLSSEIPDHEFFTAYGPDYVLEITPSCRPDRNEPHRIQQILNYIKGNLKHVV
Experimental: (§1) To further investigate whether the fluorine-18-hydroxamic acid-based compound is useful as a HDAC inhibitor, the inhibitory effect on HDAC is assayed with the fluorine-19-hydroxamic acid-based compound. The fluorine-18-hydroxamic acid-based compound and the fluorine-19-hydroxamic acid-based compound have the same chemical properties, except that the fluorine-18-hydroxamic acid-based compound has radioactivity, and the fluorine-19-hydroxamic acid-based compound has no radioactivity.
(§2) The fluorine-19-hydroxamic acid-based compound was diluted in dimethyl sulfoxide (DMSO) to give 4 different concentrations. The enzyme activity of various subtypes of HDAC was assayed with a HDAC Fluorometric Assay Kit (available from Enzolifesciences). The fluorine-19-hydroxamic acid-based compound (10 μL) and enzyme (15 μL) were added to a white opaque 96-well plate, and then a substrate (25 μL) was added and incubated for 30 min at room temperature. After incubation, the fluorescence intensity of the 96-well plate was measured on a microplate reader at an excitation wavelength of 355 nm and an emission wavelength of 460 nm, and the fluorescence intensity measured was analyzed by Graph Pad Prism 6 to calculate IC50 (as shown in FIG. 5).

HDAC6 = target: T2, HDAC6 (Homo sapiens, UniProt Q9UBN7); experiment: HDAC Fluorometric Assay Kit enzyme activity assay, HDAC6
T2 construct: purchased Enzolifesciences
T2 sequence (Q9UBN7 1-1215): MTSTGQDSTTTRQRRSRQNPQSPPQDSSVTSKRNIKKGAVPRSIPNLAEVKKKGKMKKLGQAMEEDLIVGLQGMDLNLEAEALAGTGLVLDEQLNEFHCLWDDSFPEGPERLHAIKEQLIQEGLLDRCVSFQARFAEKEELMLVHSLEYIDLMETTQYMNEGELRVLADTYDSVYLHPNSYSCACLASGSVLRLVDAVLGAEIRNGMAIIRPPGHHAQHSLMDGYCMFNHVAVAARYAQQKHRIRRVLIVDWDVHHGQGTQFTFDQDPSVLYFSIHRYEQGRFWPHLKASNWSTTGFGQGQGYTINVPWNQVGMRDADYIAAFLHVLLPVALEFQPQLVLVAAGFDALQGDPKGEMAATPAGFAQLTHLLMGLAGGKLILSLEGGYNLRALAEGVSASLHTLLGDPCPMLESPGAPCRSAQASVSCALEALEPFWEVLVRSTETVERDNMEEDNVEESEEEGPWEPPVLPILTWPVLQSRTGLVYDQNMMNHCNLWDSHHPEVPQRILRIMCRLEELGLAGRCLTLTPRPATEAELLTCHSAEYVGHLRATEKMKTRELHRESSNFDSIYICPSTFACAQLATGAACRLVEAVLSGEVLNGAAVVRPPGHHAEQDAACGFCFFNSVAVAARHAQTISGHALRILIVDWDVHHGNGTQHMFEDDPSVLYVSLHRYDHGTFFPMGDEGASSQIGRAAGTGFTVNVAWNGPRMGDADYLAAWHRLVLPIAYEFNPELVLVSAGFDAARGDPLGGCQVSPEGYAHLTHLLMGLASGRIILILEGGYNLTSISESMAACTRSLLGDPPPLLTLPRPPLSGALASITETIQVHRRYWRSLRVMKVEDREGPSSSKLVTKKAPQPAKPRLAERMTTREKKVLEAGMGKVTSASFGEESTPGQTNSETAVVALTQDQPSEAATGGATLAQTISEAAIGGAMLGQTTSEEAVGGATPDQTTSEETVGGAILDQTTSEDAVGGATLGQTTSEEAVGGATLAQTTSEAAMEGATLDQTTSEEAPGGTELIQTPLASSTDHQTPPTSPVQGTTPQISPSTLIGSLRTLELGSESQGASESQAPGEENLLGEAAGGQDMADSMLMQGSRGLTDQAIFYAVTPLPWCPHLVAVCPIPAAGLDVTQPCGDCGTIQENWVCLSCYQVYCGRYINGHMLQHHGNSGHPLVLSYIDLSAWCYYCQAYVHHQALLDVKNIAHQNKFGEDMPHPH
Experimental: as §1, §2

HDAC3 = target: T3, HDAC3 (Homo sapiens, UniProt O15379); experiment: HDAC Fluorometric Assay Kit enzyme activity assay, HDAC3
T3 construct: purchased Enzolifesciences
Experimental: as §1, §2

T3 sequence (O15379 whole entry, species assumed): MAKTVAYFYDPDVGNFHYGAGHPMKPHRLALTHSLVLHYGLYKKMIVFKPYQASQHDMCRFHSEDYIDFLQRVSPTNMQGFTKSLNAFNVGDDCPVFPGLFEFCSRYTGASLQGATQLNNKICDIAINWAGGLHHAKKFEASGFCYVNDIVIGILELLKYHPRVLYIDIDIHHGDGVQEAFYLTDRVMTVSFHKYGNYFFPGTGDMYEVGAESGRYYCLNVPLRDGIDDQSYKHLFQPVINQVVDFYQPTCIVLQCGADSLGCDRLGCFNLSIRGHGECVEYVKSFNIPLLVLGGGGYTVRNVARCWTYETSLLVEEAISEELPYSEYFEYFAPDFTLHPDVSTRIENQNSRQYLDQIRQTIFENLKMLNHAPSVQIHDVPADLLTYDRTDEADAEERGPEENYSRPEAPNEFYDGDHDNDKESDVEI
T3 sequence (O75376 395-489 partner limits assumed, species assumed): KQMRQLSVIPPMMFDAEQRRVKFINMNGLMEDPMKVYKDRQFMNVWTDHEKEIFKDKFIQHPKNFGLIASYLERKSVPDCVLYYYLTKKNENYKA

IC50, inhibitory effect on HDAC8 (HDAC8): selectively inhibited
IC50, inhibitory effect on HDAC6 (HDAC6): selectively inhibited
IC50, inhibitory effect on HDAC3 (HDAC3): selectively inhibited
SMILES: Cc1cc(F)ccc1OCCCC(=O)NO
